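Cells were grown in 96-well plates and exposed to each compound for 48 hours at five concentrations; endpoints were interpolated linearly between bracketing concentrations, or set to the highest concentration if not reached. GI50 = concentration required for 50% inhibition of growth. TGI denotes the concentration required for complete inhibition of growth.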
Legend:
Assay in all cases: DTP human tumour cell line panel, 48 h
ACHN renal = test system: ACHN renal
SW-620 colon = test system: SW-620 colon
786-0 renal = test system: 786-0 renal
SNB-19 CNS = test system: SNB-19 CNS
HCC-2998 colon = test system: HCC-2998 colon
SF-268 CNS = test system: SF-268 CNS
HT29 colon = test system: HT29 colon
SR leukemia = test system: SR leukemia
UACC-62 melanoma = test system: UACC-62 melanoma
MDA-MB-435 = test system: MDA-MB-435
NCI-H23 lung = test system: NCI-H23 lung
CAKI-1 renal = test system: CAKI-1 renal
OVCAR-3 ovarian = test system: OVCAR-3 ovarian
RXF 393 renal = test system: RXF 393 renal
MCF7 breast = test system: MCF7 breast
NCI-H226 lung = test system: NCI-H226 lung
HOP-62 NSCLC = test system: HOP-62 NSCLC
SN12C renal = test system: SN12C renal
OVCAR-4 ovarian = test system: OVCAR-4 ovarian
HL-60(TB) leukemia = test system: HL-60(TB) leukemia
COLO 205 colon = test system: COLO 205 colon
TK-10 renal = test system: TK-10 renal
SF-295 CNS = test system: SF-295 CNS
RPMI-8226 leukemia = test system: RPMI-8226 leukemia
HCT-116 colon = test system: HCT-116 colon
NCI-H460 lung = test system: NCI-H460 lung
UACC-257 melanoma = test system: UACC-257 melanoma
EKVX NSCLC = test system: EKVX NSCLC
T-47D breast = test system: T-47D breast
K-562 leukemia = test system: K-562 leukemia
KM12 colon = test system: KM12 colon
OVCAR-5 ovarian = test system: OVCAR-5 ovarian
CCRF-CEM leukemia = test system: CCRF-CEM leukemia
UO-31 renal = test system: UO-31 renal
LOX IMVI melanoma = test system: LOX IMVI melanoma
SNB-75 CNS = test system: SNB-75 CNS
U251 CNS = test system: U251 CNS
DU-145 prostate = test system: DU-145 prostate
MALME-3M melanoma = test system: MALME-3M melanoma
NCI/ADR-RES ovarian = test system: NCI/ADR-RES ovarian
SK-MEL-28 melanoma = test system: SK-MEL-28 melanoma
A549 NSCLC = test system: A549 NSCLC
BT-549 breast = test system: BT-549 breast
SF-539 CNS = test system: SF-539 CNS
MOLT-4 leukemia = test system: MOLT-4 leukemia
A498 renal = test system: A498 renal
OVCAR-8 ovarian = test system: OVCAR-8 ovarian
SK-MEL-5 melanoma = test system: SK-MEL-5 melanoma
PC-3 prostate = test system: PC-3 prostate
SK-MEL-2 melanoma = test system: SK-MEL-2 melanoma
HCT-15 colon = test system: HCT-15 colon
SK-OV-3 ovarian = test system: SK-OV-3 ovarian
IGROV1 ovarian = test system: IGROV1 ovarian
HOP-92 NSCLC = test system: HOP-92 NSCLC
HS 578T breast = test system: HS 578T breast
M14 melanoma = test system: M14 melanoma
MDA-MB-231 breast = test system: MDA-MB-231 breast
NCI-H522 lung = test system: NCI-H522 lung

O=C1CC(c2ccc(N3CCOCC3)cc2)(c2ccsc2)NC(=O)C1Sc1ccccc1Cl (stereo unspecified)
GI50 (ACHN renal): 47.4 µM
TGI (ACHN renal): > 100 µM
GI50 (SW-620 colon): 21.6 µM
TGI (SW-620 colon): > 100 µM
GI50 (786-0 renal): 6.53 µM
TGI (786-0 renal): > 100 µM
GI50 (SNB-19 CNS): 30.3 µM
TGI (SNB-19 CNS): > 100 µM
GI50 (HCC-2998 colon): > 100 µM
TGI (HCC-2998 colon): > 100 µM
GI50 (SF-268 CNS): 20.2 µM
TGI (SF-268 CNS): > 100 µM
GI50 (HT29 colon): 46.4 µM
TGI (HT29 colon): > 100 µM
GI50 (SR leukemia): 4.4 µM
TGI (SR leukemia): > 100 µM
GI50 (UACC-62 melanoma): 53.1 µM
TGI (UACC-62 melanoma): > 100 µM
GI50 (MDA-MB-435): 88.6 µM
TGI (MDA-MB-435): > 100 µM
GI50 (NCI-H23 lung): 65.5 µM
TGI (NCI-H23 lung): > 100 µM
GI50 (CAKI-1 renal): 28.4 µM
TGI (CAKI-1 renal): > 100 µM
GI50 (OVCAR-3 ovarian): 67 µM
TGI (OVCAR-3 ovarian): > 100 µM
GI50 (RXF 393 renal): 5.65 µM
TGI (RXF 393 renal): > 100 µM
GI50 (MCF7 breast): 57.2 µM
TGI (MCF7 breast): > 100 µM
GI50 (NCI-H226 lung): > 100 µM
TGI (NCI-H226 lung): > 100 µM
GI50 (HOP-62 NSCLC): 60.3 µM
TGI (HOP-62 NSCLC): > 100 µM
GI50 (SN12C renal): 10.1 µM
TGI (SN12C renal): > 100 µM
GI50 (OVCAR-4 ovarian): > 100 µM
TGI (OVCAR-4 ovarian): > 100 µM
GI50 (HL-60(TB) leukemia): > 100 µM
TGI (HL-60(TB) leukemia): > 100 µM
GI50 (COLO 205 colon): > 100 µM
TGI (COLO 205 colon): > 100 µM
GI50 (TK-10 renal): > 100 µM
TGI (TK-10 renal): > 100 µM
GI50 (SF-295 CNS): 67 µM
TGI (SF-295 CNS): > 100 µM
GI50 (RPMI-8226 leukemia): 31.6 µM
TGI (RPMI-8226 leukemia): > 100 µM
GI50 (HCT-116 colon): 25.4 µM
TGI (HCT-116 colon): > 100 µM
GI50 (NCI-H460 lung): 13.5 µM
TGI (NCI-H460 lung): > 100 µM
GI50 (UACC-257 melanoma): > 100 µM
TGI (UACC-257 melanoma): > 100 µM
GI50 (EKVX NSCLC): > 100 µM
TGI (EKVX NSCLC): > 100 µM
GI50 (T-47D breast): 85.9 µM
TGI (T-47D breast): > 100 µM
GI50 (K-562 leukemia): 4.69 µM
TGI (K-562 leukemia): > 100 µM
GI50 (KM12 colon): 43.7 µM
TGI (KM12 colon): > 100 µM
GI50 (OVCAR-5 ovarian): > 100 µM
TGI (OVCAR-5 ovarian): > 100 µM
GI50 (CCRF-CEM leukemia): 6 µM
TGI (CCRF-CEM leukemia): > 100 µM
GI50 (UO-31 renal): 34.4 µM
TGI (UO-31 renal): > 100 µM
GI50 (LOX IMVI melanoma): 31.5 µM
TGI (LOX IMVI melanoma): > 100 µM
GI50 (SNB-75 CNS): 54.9 µM
TGI (SNB-75 CNS): > 100 µM
GI50 (U251 CNS): 19.5 µM
TGI (U251 CNS): > 100 µM
GI50 (DU-145 prostate): 85 µM
TGI (DU-145 prostate): > 100 µM
GI50 (MALME-3M melanoma): > 100 µM
TGI (MALME-3M melanoma): > 100 µM
GI50 (NCI/ADR-RES ovarian): 46.7 µM
TGI (NCI/ADR-RES ovarian): > 100 µM
GI50 (SK-MEL-28 melanoma): 38.4 µM
TGI (SK-MEL-28 melanoma): > 100 µM
GI50 (A549 NSCLC): > 100 µM
TGI (A549 NSCLC): > 100 µM
GI50 (BT-549 breast): 16.7 µM
TGI (BT-549 breast): > 100 µM
GI50 (SF-539 CNS): 56.4 µM
TGI (SF-539 CNS): > 100 µM
GI50 (MOLT-4 leukemia): 46.9 µM
TGI (MOLT-4 leukemia): > 100 µM
GI50 (A498 renal): 10.4 µM
TGI (A498 renal): > 100 µM
GI50 (OVCAR-8 ovarian): 7.68 µM
TGI (OVCAR-8 ovarian): > 100 µM
GI50 (SK-MEL-5 melanoma): 36.6 µM
TGI (SK-MEL-5 melanoma): > 100 µM
GI50 (PC-3 prostate): 53.1 µM
TGI (PC-3 prostate): > 100 µM
GI50 (SK-MEL-2 melanoma): 49.3 µM
TGI (SK-MEL-2 melanoma): > 100 µM
GI50 (HCT-15 colon): 56.7 µM
TGI (HCT-15 colon): > 100 µM
GI50 (SK-OV-3 ovarian): > 100 µM
TGI (SK-OV-3 ovarian): > 100 µM
GI50 (IGROV1 ovarian): 22.4 µM
TGI (IGROV1 ovarian): > 100 µM
GI50 (HOP-92 NSCLC): 11.8 µM
TGI (HOP-92 NSCLC): > 100 µM
GI50 (HS 578T breast): 3.66 µM
TGI (HS 578T breast): > 100 µM
GI50 (M14 melanoma): 60.7 µM
TGI (M14 melanoma): > 100 µM
GI50 (MDA-MB-231 breast): 45.9 µM
TGI (MDA-MB-231 breast): > 100 µM
GI50 (NCI-H522 lung): 13.8 µM
TGI (NCI-H522 lung): > 100 µM

— PubChem BioAssay (NCI)
